Measured values reported in PubChem BioAssay (NCI).
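Each compound was tested at five concentrations against cells in 96-well plates for 48 hours. GI50 marks 50% less growth. TGI is the concentration that stops growth completely.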

How the values were obtained:
Test in all cases: NCI anticancer screen, dose series, 48 h
[1] = tested on: 786-0 renal
[2] = tested on: A498 renal
[3] = tested on: A549 NSCLC
[4] = tested on: ACHN renal
[5] = tested on: BT-549 breast
[6] = tested on: CAKI-1 renal
[7] = tested on: CCRF-CEM leukemia
[8] = tested on: COLO 205 colon
[9] = tested on: DU-145 prostate
[10] = tested on: HCC-2998 colon
[11] = tested on: HCT-116 colon
[12] = tested on: HCT-15 colon
[13] = tested on: HL-60(TB) leukemia
[14] = tested on: HOP-62 NSCLC
[15] = tested on: HOP-92 NSCLC
[16] = tested on: HS 578T breast
[17] = tested on: HT29 colon
[18] = tested on: IGROV1 ovarian
[19] = tested on: K-562 leukemia
[20] = tested on: KM12 colon
[21] = tested on: LOX IMVI melanoma
[22] = tested on: M14 melanoma
[23] = tested on: MALME-3M melanoma
[24] = tested on: MCF7 breast
[25] = tested on: MDA-MB-231 breast
[26] = tested on: MDA-MB-435
[27] = tested on: MOLT-4 leukemia
[28] = tested on: NCI-H226 lung
[29] = tested on: NCI-H23 lung
[30] = tested on: NCI-H460 lung
[31] = tested on: NCI-H522 lung
[32] = tested on: NCI/ADR-RES ovarian
[33] = tested on: OVCAR-3 ovarian
[34] = tested on: OVCAR-4 ovarian
[35] = tested on: OVCAR-5 ovarian
[36] = tested on: OVCAR-8 ovarian
[37] = tested on: PC-3 prostate
[38] = tested on: RPMI-8226 leukemia
[39] = tested on: RXF 393 renal
[40] = tested on: SF-268 CNS
[41] = tested on: SF-295 CNS
[42] = tested on: SF-539 CNS
[43] = tested on: SK-MEL-2 melanoma
[44] = tested on: SK-MEL-28 melanoma
[45] = tested on: SK-MEL-5 melanoma
[46] = tested on: SK-OV-3 ovarian
[47] = tested on: SN12C renal
[48] = tested on: SNB-19 CNS
[49] = tested on: SNB-75 CNS
[50] = tested on: SR leukemia
[51] = tested on: SW-620 colon
[52] = tested on: T-47D breast
[53] = tested on: TK-10 renal
[54] = tested on: U251 CNS
[55] = tested on: UACC-257 melanoma
[56] = tested on: UACC-62 melanoma
[57] = tested on: UO-31 renal

CC1(C)CCC(CN2CCN(c3ccc(C(=O)NS(=O)(=O)c4ccc(NCC5CCOCC5)c([N+](=O)[O-])c4)c(Oc4cnc5[nH]ccc5c4)c3)CC2)=C(c2ccc(Cl)cc2)C1
GI50 [1]: 3.54 µM
TGI [1]: 12.5 µM
GI50 [2]: 1.58 µM
TGI [2]: 4.43 µM
GI50 [3]: 2.4 µM
TGI [3]: 11.8 µM
GI50 [4]: 2.93 µM
TGI [4]: 10.2 µM
GI50 [5]: 3.13 µM
TGI [5]: 8.66 µM
GI50 [6]: 2.91 µM
TGI [6]: 10.7 µM
GI50 [7]: 2.32 µM
TGI [7]: 7.29 µM
GI50 [8]: 1.95 µM
TGI [8]: 3.7 µM
GI50 [9]: 4.47 µM
TGI [9]: 21.3 µM
GI50 [10]: 2.1 µM
TGI [10]: 3.92 µM
GI50 [11]: 3.36 µM
TGI [11]: 11.8 µM
GI50 [12]: 3.1 µM
TGI [12]: 11.2 µM
GI50 [13]: 0.25 µM
TGI [13]: 2.33 µM
GI50 [14]: 4.1 µM
TGI [14]: 15.8 µM
GI50 [15]: 1.29 µM
TGI [15]: 2.77 µM
GI50 [16]: 2.94 µM
TGI [16]: 12.2 µM
GI50 [17]: 2.49 µM
TGI [17]: 6.45 µM
GI50 [18]: 2.98 µM
TGI [18]: 9.57 µM
GI50 [19]: 3.5 µM
TGI [19]: 26.9 µM
GI50 [20]: 2.98 µM
TGI [20]: 9.86 µM
GI50 [21]: 2.21 µM
TGI [21]: 4.85 µM
GI50 [22]: 2.54 µM
TGI [22]: 7.07 µM
GI50 [23]: 1.82 µM
TGI [23]: 3.64 µM
GI50 [24]: 3.16 µM
TGI [24]: 14.5 µM
GI50 [25]: 1.78 µM
TGI [25]: 4 µM
GI50 [26]: 2.07 µM
TGI [26]: 5.38 µM
GI50 [27]: 2.15 µM
TGI [27]: 5.27 µM
GI50 [28]: 2.36 µM
TGI [28]: 6.9 µM
GI50 [29]: 3.13 µM
TGI [29]: 12.5 µM
GI50 [30]: 2.64 µM
TGI [30]: 8.86 µM
GI50 [31]: 2.46 µM
TGI [31]: 7.23 µM
GI50 [32]: 5 µM
TGI [32]: 27.3 µM
GI50 [33]: 2.31 µM
TGI [33]: 5.44 µM
GI50 [34]: 3.53 µM
TGI [34]: 20.4 µM
GI50 [35]: 3.19 µM
TGI [35]: 11.6 µM
GI50 [36]: 3.22 µM
TGI [36]: 16.5 µM
GI50 [37]: 1.93 µM
TGI [37]: 5.54 µM
GI50 [38]: 1.78 µM
TGI [38]: 5.54 µM
GI50 [39]: 1.57 µM
TGI [39]: 3.48 µM
GI50 [40]: 3.58 µM
TGI [40]: 17.8 µM
GI50 [41]: 2.35 µM
TGI [41]: 7.42 µM
GI50 [42]: 2.41 µM
TGI [42]: 5.62 µM
GI50 [43]: 1.63 µM
TGI [43]: 3.36 µM
GI50 [44]: 1.41 µM
TGI [44]: 6.79 µM
GI50 [45]: 1.67 µM
TGI [45]: 3.09 µM
GI50 [46]: 3.16 µM
TGI [46]: 10.9 µM
GI50 [47]: 2.82 µM
TGI [47]: 11.8 µM
GI50 [48]: 3.55 µM
TGI [48]: 23.8 µM
GI50 [49]: 3.71 µM
TGI [49]: 15.1 µM
GI50 [50]: 3.21 µM
TGI [50]: 13 µM
GI50 [51]: 3.95 µM
TGI [51]: 16.8 µM
GI50 [52]: 3.25 µM
TGI [52]: 18.9 µM
GI50 [53]: 2.26 µM
TGI [53]: 6.34 µM
GI50 [54]: 2.9 µM
TGI [54]: 11.5 µM
GI50 [55]: 1.98 µM
TGI [55]: 4.94 µM
GI50 [56]: 0.782 µM
TGI [56]: 2.16 µM
GI50 [57]: 2.57 µM
TGI [57]: 8.26 µM

Cc1nc(N=C(N)N)nc2ccc3ccccc3c12
GI50 [1]: 1.11 µM
TGI [1]: 3.01 µM
GI50 [2]: 1.54 µM
TGI [2]: 3.23 µM
GI50 [3]: 1.95 µM
TGI [3]: 7.24 µM
GI50 [4]: 1.79 µM
TGI [4]: 5.15 µM
GI50 [5]: 2.67 µM
TGI [5]: 7.96 µM
GI50 [6]: 2.5 µM
TGI [6]: 10.9 µM
GI50 [7]: 1.76 µM
TGI [7]: 6.01 µM
GI50 [8]: 1.13 µM
TGI [8]: 3.13 µM
GI50 [9]: 1.53 µM
TGI [9]: 5.31 µM
GI50 [11]: 1.12 µM
TGI [11]: 4.82 µM
GI50 [12]: 2.99 µM
TGI [12]: 14.1 µM
GI50 [13]: 2.25 µM
TGI [13]: 5.41 µM
GI50 [14]: 1.25 µM
TGI [14]: 3.6 µM
GI50 [16]: 0.606 µM
TGI [16]: 3.16 µM
GI50 [17]: 1.95 µM
TGI [17]: 4.96 µM
GI50 [18]: 1.53 µM
TGI [18]: 7.87 µM
GI50 [19]: 1.43 µM
TGI [19]: 6.13 µM
GI50 [20]: 1.03 µM
TGI [20]: 4.37 µM
GI50 [21]: 1.57 µM
TGI [21]: 3.18 µM
GI50 [22]: 1.59 µM
TGI [22]: 3.43 µM
GI50 [24]: 0.441 µM
TGI [24]: 2.93 µM
GI50 [25]: 1.25 µM
TGI [25]: 3.2 µM
GI50 [26]: 1.28 µM
TGI [26]: 2.77 µM
GI50 [27]: 1.37 µM
TGI [27]: 3.62 µM
GI50 [28]: 1.29 µM
TGI [28]: 3.58 µM
GI50 [29]: 2.33 µM
TGI [29]: 7.31 µM
GI50 [30]: 2.31 µM
TGI [30]: 6.56 µM
GI50 [31]: 1.04 µM
TGI [31]: 2.5 µM
GI50 [32]: 11.4 µM
TGI [32]: 36 µM
GI50 [33]: 1.32 µM
TGI [33]: 3.77 µM
GI50 [34]: 1.44 µM
TGI [34]: 5.1 µM
GI50 [35]: 2.29 µM
TGI [35]: 7.52 µM
GI50 [36]: 0.811 µM
TGI [36]: 3.91 µM
GI50 [37]: 1.26 µM
TGI [37]: 4.1 µM
GI50 [38]: 2.53 µM
TGI [38]: 7.36 µM
GI50 [40]: 0.505 µM
TGI [40]: 2.55 µM
GI50 [41]: 1.03 µM
TGI [41]: 4.43 µM
GI50 [42]: 1.39 µM
TGI [42]: 2.98 µM
GI50 [43]: 1.72 µM
TGI [43]: 3.37 µM
GI50 [44]: 1.53 µM
TGI [44]: 3.71 µM
GI50 [45]: 1.51 µM
TGI [45]: 3.32 µM
GI50 [46]: 1.92 µM
TGI [46]: 6.85 µM
GI50 [47]: 0.49 µM
TGI [47]: 3.84 µM
GI50 [48]: 0.942 µM
TGI [48]: 4.89 µM
GI50 [49]: 0.524 µM
TGI [49]: 1.97 µM
GI50 [50]: 0.423 µM
TGI [50]: 2.26 µM
GI50 [51]: 0.897 µM
TGI [51]: 10.3 µM
GI50 [52]: 1.12 µM
TGI [52]: 7.24 µM
GI50 [54]: 0.676 µM
TGI [54]: 2.29 µM
GI50 [55]: 1.46 µM
TGI [55]: 4.17 µM
GI50 [57]: 2.14 µM
TGI [57]: 8.52 µM
